For 38 compounds, IC50 and inhibition results are on record in patent publication EP2951180B1, “2,6,7,8 SUBSTITUTED PURINES AS HDM2 INHIBITORS” (Merck Sharp & Dohme Corp., priority 2013, dated 2014).

As a reminder, the IC50 is the concentration needed to halve the response being measured.

The structures appear in SMILES notation.

T1 sequence (Q00987 17-125): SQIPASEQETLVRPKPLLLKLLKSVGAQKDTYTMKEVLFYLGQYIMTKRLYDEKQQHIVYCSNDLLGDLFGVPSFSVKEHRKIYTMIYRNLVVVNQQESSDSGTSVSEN

One assay addresses T1, HDM2 (Homo sapiens, UniProt Q00987).
T1 construct: Thioredoxin (N); made in house; host or cells: E. coli strain BL21(DE3)Rosetta
As to the kind of experiment: HDM2 FRET assay (inhibition of binding of FITC labeled p53-pocket peptide to HDM2). The settings on record: 0.5 nM HDM2 (residues 17 to 125), 3nM peptide, two hour incubation at room temperature; read-out: FRET IC50. The text has this: Methods: An HDM2 FRET assay was developed to assess the compounds' inhibitory activity towards binding of p53 protein. […] Protein was purified using Ni-affinity chromatography, followed by size exclusion chromatography using Superdex 75 26/60 column. […] The HDM2 assay buffer contained 1x Phosphate Buffered Saline (Invitrogen, Cat#14190), 0.01% BSA (Jackson ImmunoResearch, Cat# 001-000-162), 0.01% Tween-20. In the 1X assay buffer recombinant HDM2 protein, peptide and Lumi4-Tb Cryptate-conjugate mouse anti-6xHis antibody (cisbio, Cat#Tb61HISTLB) were added and transferred to ProxiPlate PLUS (PerkinElmer, Cat#6008269), containing compounds so that final DMSO concentration is 0.1% . Final concentrations of reagents in the assay wells are 0.5 nM HDM2, 0.25nM anti HIS (Tb label) antibody and 3nM peptide. […] Ratio of em520/em495 was used to calculate %inhibition and to obtain IC50 with 4-parameter logistic equation.
IC50 DETERMINATIONS: Dose-response curves were plotted from the inhibition data, from 10 point serial dilutions of inhibitory compounds. Concentration of compound was plotted against em520/Cem495 ratio signal. To generate IC50 values, the dose-response curves were fitted to a standard sigmoidal curve and IC50 values were derived by nonlinear regression analysis.
As to `C[C@@H](Nc1nc([S+](C)[O-])nc2nc(N3CCOC[C@H]3c3ccccc3)n(C[C@H]3CC[C@H](C)CC3)c12)C1CCC1` (single isomer, unassigned) [Example 14.2], the IC50 was 10.5 nM. Still for that read-out and setting: the result for `C[C@@H](Nc1nc([S+](C)[O-])nc2nc(N3CCOC[C@H]3c3ccccc3)n(C[C@H]3CC[C@H](C)CC3)c12)C1CCC1` (single isomer, unassigned) [Example 14.3] reads 57.4 nM; that for `C[C@@H](Nc1nc(S(C)(=O)=O)nc2nc(N3CCCCC3c3ccccc3)n(C[C@H]3CC[C@H](C)CC3)c12)C1CCC1` (single isomer, unassigned) [Example 14.10], 109 nM; that for `C[C@H]1CC[C@H](Cn2c(N3CCCC4COCCC43)nc3nc(-c4noc(=O)[nH]4)nc(-c4cccc(Cl)c4)c32)CC1` (single isomer, unassigned) [Example 16.118, 3-{6-(3-chlorophenyl)-8-(hexahydro-2H-pyrano[4,3-b]pyridin-1(5H)-yl)-7-[(trans-4-methylcyclohexyl)methyl]-7H-purin-2-yl}-1,2,4-oxadiazol-5(4H)-one], 22.2 nM.

The assay is the same for the next values; noted with them: Table 11; read-out: FRET IC50.
Turning to `C[C@@H](Nc1nc(-c2n[nH]c(=O)o2)nc2nc(N3CCOC4CCCCC43)n(C[C@H]3CC[C@H](C)CC3)c12)C1CCC1` (single isomer, unassigned) [Example 11.126], the IC50 was determined as 1.46 nM. Same read-out and setting: the result for `C[C@@H](Nc1nc(-c2noc(=O)[nH]2)nc2nc(N3CCOC4CCCC43)n(C[C@H]3CC[C@H](C)CC3)c12)C1CCC1` (single isomer, unassigned) [Example 11.131] reads 7.02 nM. On to `C[C@@H](Nc1nc(-c2noc(=O)[nH]2)nc2nc(N3CCOC4CCCC43)n(C[C@H]3CC[C@H](C)CC3)c12)C1CCC1` (single isomer, unassigned) [Example 11.133], for which the IC50 was found to be 0.344 nM. Take `C[C@@H](Nc1nc(-c2noc(=O)[nH]2)nc2nc(N3CCCC3c3ccccc3)n(C[C@H]3CC[C@H](C)CC3)c12)C1CCC1` (single isomer, unassigned) [Example 11.135]: the IC50 amounted to 2.08 nM. `C[C@@H](Nc1nc(-c2noc(=O)[nH]2)nc2nc(N3CCCC3c3ccccc3)n(C[C@H]3CC[C@H](C)CC3)c12)C1CCC1` (single isomer, unassigned) [Example 11.136]: the half-maximal inhibitory concentration (IC50) was 514 nM.

Turning to `C[C@@H](Nc1nc(-c2n[nH]c(=O)o2)nc2nc(N3CCOC4CCCC43)n(C[C@H]3CC[C@H](C)CC3)c12)C1CCC1` (single isomer, unassigned) [Example 11.140], the IC50 came to 9.87 nM.

As to `C[C@@H](Nc1nc(-c2n[nH]c(=O)o2)nc2nc(N3CCOC4CCCC43)n(C[C@H]3CC[C@H](C)CC3)c12)C1CCC1` (single isomer, unassigned) [Example 11.141], the IC50 worked out at 0.841 nM. For `C[C@@H](Nc1nc(-c2noc(=O)[nH]2)nc2nc(N3CCOC4CCCC43)n(C[C@H]3CC[C@H](C)CC3)c12)C1CCC1` (single isomer, unassigned) [Example 11.148], the IC50 stood at 23.8 nM. Still for that read-out and setting: the figure for `C[C@@H](Nc1nc(-c2noc(=O)[nH]2)nc2nc(N3CCOC4CCCC43)n(C[C@H]3CC[C@H](C)CC3)c12)C1CCC1` (single isomer, unassigned) [Example 11.149] is 3.58 nM. In the case of `COCC1COCCN1c1nc2nc(-c3noc(=O)[nH]3)nc(N[C@H](C)C3CCC3)c2n1C[C@H]1CC[C@H](C)CC1` (single isomer, unassigned) [Example 11.150], the IC50 turned out to be 6.73 nM. Same read-out and setting: the figure for `COCC1COCCN1c1nc2nc(-c3noc(=O)[nH]3)nc(N[C@H](C)C3CCC3)c2n1C[C@H]1CC[C@H](C)CC1` (single isomer, unassigned) [Example 11.151] is 20.9 nM; for `C[C@@H](Nc1nc(-c2noc(=O)[nH]2)nc2nc(N3CCCC3C[S+](C)[O-])n(C[C@H]3CC[C@H](C)CC3)c12)C1CCC1` (single isomer, unassigned) [Example 11.154] it is 70.7 nM; for `C[C@@H](Nc1nc(-c2noc(=O)[nH]2)nc2nc(N3CCCC3C[S+](C)[O-])n(C[C@H]3CC[C@H](C)CC3)c12)C1CCC1` (single isomer, unassigned) [Example 11.155] it is 165 nM. In the case of `C[C@@H](Nc1nc(-c2n[nH]c(=O)o2)nc2nc(N3CCO[C@H](C)[C@@H]3C)n(C[C@H]3CC[C@H](C)CC3)c12)C1CCC1` (single isomer, unassigned) [Example 11.157], the IC50 came to 47 nM. `C[C@@H](Nc1nc(-c2n[nH]c(=O)o2)nc2nc(N3CCO[C@H](C)[C@@H]3C)n(C[C@H]3CC[C@H](C)CC3)c12)C1CCC1` (single isomer, unassigned) [Example 11.158]: the IC50 is 12.9 nM. For `C[C@@H](Nc1nc(-c2n[nH]c(=O)o2)nc2nc(N3CCO[C@H]4CCCC[C@H]43)n(C[C@H]3CC[C@H](C)CC3)c12)C1CCC1` (single isomer, unassigned) [Example 11.161], the IC50 amounted to 29.5 nM. For `C[C@@H](Nc1nc(-c2n[nH]c(=O)o2)nc2nc(N3CCO[C@H]4CCCC[C@H]43)n(C[C@H]3CC[C@H](C)CC3)c12)C1CCC1` (single isomer, unassigned) [Example 11.162], the IC50 is 7.4 nM.

The same assay, now with this note: Table 18; read-out: FRET IC50.
As to `CC([C@H]1CC[C@H](C)CC1)n1c(N2CCOC[C@H]2C)nc2nc(-c3noc(=O)[nH]3)nc(N[C@H](C)C3CCC3)c21` (single isomer, unassigned) [Example 18.12], the IC50 worked out at 2.82 nM. `CC([C@H]1CC[C@H](C)CC1)n1c(N2CCOC[C@H]2C)nc2nc(-c3noc(=O)[nH]3)nc(N[C@H](C)C3CCC3)c21` (single isomer, unassigned) [Example 18.13]: the IC50 amounted to 2.27 nM. On to `CC([C@H]1CC[C@H](C)CC1)n1c(N2CCOC[C@H]2c2ccccc2)nc2nc(-c3n[nH]c(=O)o3)nc(-c3cncc(Cl)c3)c21` (single isomer, unassigned) [Example 18.14], for which the IC50 was found to be 0.62 nM. Regarding `CC([C@H]1CC[C@H](C)CC1)n1c(N2CCOC[C@H]2C)nc2nc(-c3n[nH]c(=O)o3)nc(-c3cccc(Cl)c3)c21` (single isomer, unassigned) [Example 18.35], the IC50 is 5.04 nM. With `CC([C@H]1CC[C@H](C)CC1)n1c(N2CCOC[C@H]2C)nc2nc(-c3n[nH]c(=O)o3)nc(-c3cccc(Cl)c3)c21` (single isomer, unassigned) [Example 18.36], the 50% inhibitory concentration (IC50) was 8.87 nM.

On to `CC([C@H]1CC[C@H](C)CC1)n1c(N2CCC[C@H]2CF)nc2nc(-c3noc(=O)[nH]3)nc(-c3cncc(Cl)c3)c21` (single isomer, unassigned) [Example 18.45], for which the IC50 came out at 2.42 nM. For `CC([C@H]1CC[C@H](C)CC1)n1c(N2CCC[C@H]2CF)nc2nc(-c3noc(=O)[nH]3)nc(-c3cncc(Cl)c3)c21` (single isomer, unassigned) [Example 18.46], the IC50 came out at 5.49 nM. Still for that read-out and setting: the result for `CC([C@H]1CC[C@H](C)CC1)n1c(N2CCC[C@H]2CF)nc2nc(-c3n[nH]c(=O)o3)nc(-c3cncc(Cl)c3)c21` (single isomer, unassigned) [Example 18.47] reads 5.14 nM; that for `CC([C@H]1CC[C@H](C)CC1)n1c(N2CCC[C@H]2CF)nc2nc(-c3n[nH]c(=O)o3)nc(-c3cncc(Cl)c3)c21` (single isomer, unassigned) [Example 18.48], 8.12 nM. On to `CC[C@@H]1COCCN1c1nc2nc(-c3noc(=O)[nH]3)nc(-c3cccc(Cl)c3)c2n1C(C)[C@H]1CC[C@H](C)CC1` (single isomer, unassigned) [Example 18.50], for which the IC50 amounted to 7.04 nM. As to `CC[C@@H]1COCCN1c1nc2nc(-c3noc(=O)[nH]3)nc(-c3cccc(Cl)c3)c2n1C(C)[C@H]1CC[C@H](C)CC1` (single isomer, unassigned) [Example 18.51], the IC50 turned out to be 10.5 nM.

Staying with this assay, now noted: Table 21; read-out: FRET IC50.
In the case of `C[C@@H](Nc1nc(C(=O)O)nc2nc(C3CCCCC3c3ccccc3)n(Cc3ccc(C(F)(F)F)cc3)c12)C1CCC1` (single isomer, unassigned) [Example 21.1], the IC50 came to 10.2 nM. As to `C[C@@H](Nc1nc(C(=O)O)nc2nc(C3CCCCC3c3ccccc3)n(Cc3ccc(C(F)(F)F)cc3)c12)C1CCC1` (single isomer, unassigned) [Example 21.2], the IC50 is 2.36 nM. As to `C[C@@H](Nc1nc(C(=O)O)nc2nc(C3CCCC3c3ccccc3)n(Cc3ccc(C(F)(F)F)cc3)c12)C1CCC1` (single isomer, unassigned) [Example 21.5], the IC50 turned out to be 26.5 nM. As for `C[C@@H](Nc1nc(C(=O)O)nc2nc(C3CCCC3c3ccccc3)n(Cc3ccc(C(F)(F)F)cc3)c12)C1CCC1` (single isomer, unassigned) [Example 21.6], the IC50 came out at 1.36 nM. `C[C@@H](Nc1nc(C(=O)O)nc2nc(C3COCC3c3ccccc3)n(Cc3ccc(C(F)(F)F)cc3)c12)C1CCC1` (single isomer, unassigned) [Example 21.7]: the IC50 came to 28.7 nM.

Staying with this assay, now noted: read-out: % inh. at 1000 nM; at 1000 nM compound.
Regarding `C[C@@H](Nc1nc(S(C)(=O)=O)nc2nc(N3CCCCC3c3ccccc3)n(C[C@H]3CC[C@H](C)CC3)c12)C1CCC1` (single isomer, unassigned) [Example 14.9], the inhibition at 1 µM was 46%.
